From PMC12349723, “Computationally accelerated identification of P-glycoprotein inhibitors” (PLOS One, 2025)
“And” between values parts separate entries of the source, which are not always exact repeats. Equal entries are not always repeated. Where two headings read alike, the source gives them in different places.

Columns and labels:
DU145-TXR cells = test: MTT viability assay, reversal of MDR (re-sensitization to paclitaxel) in P-gp overexpressing DU145-TXR cells; format: cell-based, human; details: for % Survival, mean / % Survival / viability at 15 µM: DU145-TXR; for Re-sensitization of DU145-TXR cells to PTX (reversal of MDR): 15 µM compound with or without 500 nM PTX, 48 h, MTT, re-sensitization = 30% or greater decrease in cell viability; for viability at 15 µM: Homo sapiens
Procedure: (§1) The chemotherapeutic sensitive DU145 human prostate cancer cells and the multidrug resistant sub-line, DU145-TXR, were generous gifts from Dr. Evan Keller (University of Michigan, Ann Arbor, MI). The MDR, P-gp overexpressing DU145-TXR cells were maintained under positive selection pressure by supplementing complete medium with 10 nM paclitaxel (Acros Organics, NJ). In addition to the aforementioned cell lines, the chemotherapeutic sensitive A2780 ovarian cancer cells (93112519, Sigma) and the multidrug resistant A2780-ADR (93112520, Sigma) were maintained in complete RPMI media consisting of RPMI-1640 with L-glutamine, 10% fetal bovine serum (FBS; Corning), 100 U/mL penicillin and 100 μg/mL streptomycin in a humidified incubator at 37 °C and 5% CO2. The MDR, P-gp overexpressing A2780-ADR cell line was maintained under positive selection pressure by supplementing complete medium with 100 nM doxorubicin (Fisher Scientific, NJ). The non-cancerous HFL1 (human lung fibroblast) cell line cell line was a generous gift from Dr. Robert Harrod (Southern Methodist University, Dallas, TX) and was maintained in complete F12K media consisting of F12K with 10% fetal bovine serum, 100 U/mL penicillin, and 100 µg/mL streptomycin (Gibco). Flasks and 96 well plates that were used with the non-cancerous line HFL1 were pre-treated with 0.1 mg/ml Collagen Type 1 (Gibco) and rinsed with PBS (Fisher).
(§2) Culture of the DU145, DU145-TXR, and HFL1 cell lines was performed as described in [8]. Culture of the A2780 and A2780-ADR cell lines was performed as described in [9]. MTT assays were performed as described in [8] with minor modifications. LC-MS/MS accumulation assays were performed as described in {Nanayakkara, 2018 #173} [9] with some modifications. […] The inhibitor concentration was lowered to 15 µM here, as the goal of the study was to identify compounds that were effective in reversing MDR at low concentrations, and to determine if the expanded virtual-assisted methods improved on our first-draft attempt. Compounds 56–98 were pre-screened using Resazurin cell viability assays: cells were incubated with 15 µM compound with or without 500 nM PTX for 48 hours, after which cell survival was assessed similar to [39]. Data represent the mean of two separate experiments, with n = 3 samples per experiment (n = 6 total) (S4 Table). The top performing compounds from this initial screen were re-tested with MTT viability assays against DU145-TXR cells, as described below.
(§3) MTT assays measure the reduction of yellow, water soluble 3-(4,5-dimethylthiazol-2-yl)-2,5-diphenyltetrazolium bromide (MTT) to blue, insoluble formazan crystals by cellular reductase processes in living cells. Cells were trypsinized from monolayers and seeded in complete medium in 96 well plates. Cancerous cell lines (DU145, DU145-TXR, A2780, A2780-ADR) were seeded at 3,000 cells per well in complete RPMI medium. The non-cancerous HFL1 line was seeded at 4,000 cells per well in complete F12K medium, in collagen-treated plates (Collagen Type 1, Gibco). Cells were incubated with experimental compounds for 48 hours at 37 °C and 5% CO2 in a humidified incubator. At 48 hours, MTT was added (20 µL/well of 5 mg/mL MTT in PBS) to each well. After incubation for 4 hours, the media was removed, and the formazan crystals were dissolved in 100 µL DMSO per well. Plates containing the semi-adherent A2780 or A2780-ADR lines were spun at 1400 rpm for 3 minutes prior to aspiration of media, and the addition of DMSO. Plates were shaken for 10 minutes at 500 rpm on an Orbital shaker (LabDoctor from MidSci, St Louis, MO). The absorbance was measured at 570 nm using a Bio-Tek Cytation 5 (Bio-Tek, Winooski, VT). The measured absorbance value was correlated with the number of metabolically active cells in that well, corrected for absorbance of media. […]

A2780 cells = test: MTT viability assay, parental A2780 cells, with or without PTX; format: cell-based, human; details: for Mean % Survival / % Survival (individual sample): A2780 cells; for % Survival (individual sample): single samples
Procedure: as §1, §2, §3

[1] = 15 µM compound + 500 nM PTX (Paclitaxel, Taxol), mean of 8 samples
[2] = 15 µM compound + 500 nM PTX (Paclitaxel, Taxol), trial 1, sample 1
[3] = 15 µM compound + 500 nM PTX (Paclitaxel, Taxol), trial 1, sample 2
[4] = 15 µM compound + 500 nM PTX (Paclitaxel, Taxol), trial 1, sample 3
[5] = 15 µM compound + 500 nM PTX (Paclitaxel, Taxol), trial 1, sample 4
[6] = 15 µM compound + 500 nM PTX (Paclitaxel, Taxol), trial 2, sample 1
[7] = 15 µM compound + 500 nM PTX (Paclitaxel, Taxol), trial 2, sample 2
[8] = 15 µM compound + 500 nM PTX (Paclitaxel, Taxol), trial 2, sample 3
[9] = 15 µM compound + 500 nM PTX (Paclitaxel, Taxol), trial 2, sample 4
[10] = 15 µM Compound Alone, mean of 8 samples, read-out: % Survival, mean
[11] = 15 µM Compound Alone, trial 1, sample 1, read-out: % Survival
[12] = 15 µM Compound Alone, trial 1, sample 2, read-out: % Survival
[13] = 15 µM Compound Alone, trial 1, sample 3, read-out: % Survival
[14] = 15 µM Compound Alone, trial 1, sample 4, read-out: % Survival
[15] = 15 µM Compound Alone, trial 2, sample 1, read-out: % Survival
[16] = 15 µM Compound Alone, trial 2, sample 2, read-out: % Survival
[17] = 15 µM Compound Alone, trial 2, sample 3, read-out: % Survival
[18] = 15 µM Compound Alone, trial 2, sample 4, read-out: % Survival
[19] = 15 µM compound + 500 nM PTX, mean of 8 or 12 samples
[20] = Homo sapiens, A2780, A2780 cells, 15 µM compound alone, mean of 8 or 12 samples, read-out: Mean % Survival
[21] = 1 µM compound + 500 nM PTX, mean of 12 samples

Structure (SMILES) | % Survival, mean (DU145-TXR cells; [1]) [%] | % Survival (DU145-TXR cells; [2]) [%] | % Survival (DU145-TXR cells; [3]) [%] | % Survival (DU145-TXR cells; [4]) [%] | % Survival (DU145-TXR cells; [5]) [%] | % Survival (DU145-TXR cells; [6]) [%] | % Survival (DU145-TXR cells; [7]) [%] | % Survival (DU145-TXR cells; [8]) [%] | % Survival (DU145-TXR cells; [9]) [%] | Re-sensitization of DU145-TXR cells to PTX (reversal of MDR) (DU145-TXR cells) | viability at 15 µM (DU145-TXR cells; [10]) [%] | viability at 15 µM (DU145-TXR cells; [11]) [%] | viability at 15 µM (DU145-TXR cells; [12]) [%] | viability at 15 µM (DU145-TXR cells; [13]) [%] | viability at 15 µM (DU145-TXR cells; [14]) [%] | viability at 15 µM (DU145-TXR cells; [15]) [%] | viability at 15 µM (DU145-TXR cells; [16]) [%] | viability at 15 µM (DU145-TXR cells; [17]) [%] | viability at 15 µM (DU145-TXR cells; [18]) [%] | Mean % Survival (A2780 cells; [19]) [%] | further results
Cn1cnnc1SCc1c(C(=O)O)nnn1-c1nonc1N [Compound 59, Cn1cnnc1SCc1c(nnn1-c1nonc1N)C(O)=O] | 114.8 | 116 | 115 | 139 | 150 | 95 | 97 | 95 | 111 | did not reverse MDR in DU145-TXR cells | 107 | 132 | 105 | 116 | 103 | 103 | 102 | 99 | 99 | 11.4 | % Survival (individual sample) (A2780 cells; 15 µM compound + 500 nM PTX): 6% and 9%; viability at 15 µM (A2780 cells; [20]): 99%
NS(=O)(=O)c1cccc(NC(=O)CSc2nnnn2C2CC2)c1 [Compound 89, NS(=O)(=O)c1cccc(NC(=O)CSc2nnnn2C2CC2)c1] | 97.9 | 108 | 120 | 99 | 113 | 85 | 83 | 88 | 87 | did not reverse MDR in DU145-TXR cells | 105 | 115 | 120 | 122 | 116 | 103 | 92 | 95 | 79 | 10.3 | % Survival (individual sample) (A2780 cells; 15 µM compound + 500 nM PTX): 8% and 12%; % Survival (individual sample) (A2780 cells; 15 µM compound alone): 96%; viability at 15 µM (A2780 cells; [20]): 87.9%
COc1ccc2c3c([nH]c2c1)[C@H](CC(C)C)N1C(=O)[C@H](CCC(=O)OC(C)(C)C)NC(=O)[C@@H]1C3 [Ko143, reference compound] | 72.4 | 75 | 82 | 91 | 77 | 65 | 67 | 58 | 64 | – | – | – | – | – | – | – | – | – | – | – | % Survival, mean (DU145-TXR cells; 15 µM Compound Alone, mean of 8 samples): 89.2%; % Survival (DU145-TXR cells; 15 µM Compound Alone, trial 1, sample 1): 101%; % Survival (DU145-TXR cells; 15 µM Compound Alone, trial 1, sample 2): 113%; % Survival (DU145-TXR cells; 15 µM Compound Alone, trial 1, sample 3): 88%; % Survival (DU145-TXR cells; 15 µM Compound Alone, trial 1, sample 4): 91%; % Survival (DU145-TXR cells; 15 µM Compound Alone, trial 2, sample 1): 92%; % Survival (DU145-TXR cells; 15 µM Compound Alone, trial 2, sample 2): 74%; % Survival (DU145-TXR cells; 15 µM Compound Alone, trial 2, sample 3): 75%; % Survival (DU145-TXR cells; 15 µM Compound Alone, trial 2, sample 4): 80%; Mean % Survival (A2780 cells; [21]): 12.8%; % Survival (individual sample) (A2780 cells; 1 µM compound + 500 nM PTX): 16% and 15% and 9% and 49% and 7% and 8% and 10%; % Survival (individual sample) (A2780 cells; 1 µM compound alone): 88% and 85% and 84% and 87% and 89% and 40% and 99% and 90% and 97% and 92%; Mean % Survival (A2780 cells; mean of 12 samples): 85.3%
COc1cc2c(cc1OC)CN(CCc1ccc(NC(=O)c3cc(OC)c(OC)cc3NC(=O)c3cnc4ccccc4c3)cc1)CC2 [Tariquidar, reference compound] | 13.1 | 11 | 10 | 21 | 13 | 20 | 13 | 9 | 7.57 | – | 101 | 139 | 94 | 96 | 95 | 80 | 106 | 79 | 123 | – | Mean % Survival (A2780 cells; [21]): 17.8%; % Survival (individual sample) (A2780 cells; 1 µM compound + 500 nM PTX, listed as TQR): 12%; viability at 1 µM (A2780 cells; Homo sapiens, A2780, A2780 cells, 1 µM compound alone, mean of 12 samples, read-out: Mean % Survival): 106%
